Experimental data from publication PMC11480411, “Mucosal sugars delineate pyrazine vs pyrazinone autoinducer signaling in Klebsiella oxytoca” (Nature Communications, 2024).
Values joined by “and” are separate entries in the source; they are usually repeats but may differ in a detail not shown here. Identical values can stand only once.

How the values were obtained:
Experiment in all cases: PRESTO-Tango GPCR screen and dose-response
Type in all cases: cell-based
[1] = molecular target: T1, histamine receptor H4 (HRH4) (Homo sapiens, UniProt Q9H3N8); conditions: for HRH4 dose-response raw reporter signal (Fig. 5b source data): replicate wells
T1 construct: expressed in transfected cells; host or cells: HTLA cells (HEK293 line stably expressing β-arrestin-TEV and tTA-Luciferase)
Procedure: (§1) The PRESTO-Tango analyses were performed as previously published. Briefly, HTLA cells, a HEK293 cell line that stably expresses β-arrestin-TEV and tTA-Luciferase (a kind gift from Gilad Barnea, Brown University), were plated in 96-well tissue culture plates (Eppendorf) in DMEM containing 10% FBS and 1% Penicillin/Streptomycin. One day after plating (after reaching approximately 90% confluence), 200 ng per well GPCR-Tango plasmids[37] in 20 μL DMEM were individually mixed with 400 ng polyethylenimine (Polysciences) in an equal volume of DMEM and incubated for 20 min at room temperature before adding the transfection mixture to the HTLA cells. 16-24 h after transfection, medium was replaced with 180 μL fresh DMEM containing 1% Penicillin/Streptomycin and 10 mM HEPES and 20 μL of 3 or 3-Homo to reach a final concentration of 100 μM. Supernatants were aspirated 20 h after stimulation and 50 μl per well of Bright-Glo solution (Promega) diluted 20-fold with PBS containing 20 mM HEPES was added into each well. After 15 min incubation at room temperature, luminescence was quantified using a Spectramax i3x microplate reader (Molecular Devices). Activation fold for each sample was calculated by dividing relative luminescence units (RLU) for each condition by RLUs from PBS control. Dose response curves of each chemical were performed in a similar way with varying the ligand concentration from 10^−4 M to 10^−15 M.

HRH2 = molecular target: T2, HRH2 (Homo sapiens, UniProt P25021); conditions: for HRH2 dose-response raw reporter signal (Fig. 5b source data): replicate wells
T2 construct: expressed in transfected cells; host or cells: HTLA cells (HEK293 line stably expressing β-arrestin-TEV and tTA-Luciferase)
T2 sequence (P25021 whole entry): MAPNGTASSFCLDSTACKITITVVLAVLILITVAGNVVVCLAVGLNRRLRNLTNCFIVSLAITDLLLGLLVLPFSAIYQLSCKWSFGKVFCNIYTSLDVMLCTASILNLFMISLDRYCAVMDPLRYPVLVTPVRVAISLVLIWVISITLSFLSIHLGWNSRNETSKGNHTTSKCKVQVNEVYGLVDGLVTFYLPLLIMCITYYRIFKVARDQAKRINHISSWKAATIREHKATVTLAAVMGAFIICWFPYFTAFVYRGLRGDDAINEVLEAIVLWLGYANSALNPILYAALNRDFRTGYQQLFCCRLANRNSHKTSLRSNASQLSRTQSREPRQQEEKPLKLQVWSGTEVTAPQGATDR
Procedure: as §1

HRH1 = molecular target: T3, HRH1 (Homo sapiens, UniProt P35367); conditions: for HRH1 dose-response raw reporter signal (Fig. 5b source data): replicate wells
T3 construct: expressed in transfected cells; host or cells: HTLA cells (HEK293 line stably expressing β-arrestin-TEV and tTA-Luciferase)
T3 sequence (P35367 whole entry): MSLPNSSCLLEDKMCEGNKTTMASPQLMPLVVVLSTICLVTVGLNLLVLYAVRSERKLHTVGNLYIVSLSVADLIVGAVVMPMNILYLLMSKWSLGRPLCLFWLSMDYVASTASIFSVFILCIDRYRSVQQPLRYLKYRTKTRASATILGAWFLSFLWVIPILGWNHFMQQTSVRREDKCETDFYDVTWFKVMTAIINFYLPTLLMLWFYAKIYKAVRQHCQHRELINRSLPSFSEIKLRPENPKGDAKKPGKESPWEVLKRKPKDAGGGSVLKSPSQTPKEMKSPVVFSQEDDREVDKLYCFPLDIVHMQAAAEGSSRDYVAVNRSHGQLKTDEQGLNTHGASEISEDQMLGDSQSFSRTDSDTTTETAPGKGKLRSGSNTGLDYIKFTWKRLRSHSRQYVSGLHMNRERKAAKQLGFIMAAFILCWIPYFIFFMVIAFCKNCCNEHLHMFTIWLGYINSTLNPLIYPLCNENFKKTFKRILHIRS
Procedure: as §1

HRH3 = molecular target: T4, HRH3 (Homo sapiens, UniProt Q9Y5N1); conditions: for HRH3 dose-response raw reporter signal (Fig. 5b source data): replicate wells
T4 construct: expressed in transfected cells; host or cells: HTLA cells (HEK293 line stably expressing β-arrestin-TEV and tTA-Luciferase)
T4 sequence (Q9Y5N1 whole entry): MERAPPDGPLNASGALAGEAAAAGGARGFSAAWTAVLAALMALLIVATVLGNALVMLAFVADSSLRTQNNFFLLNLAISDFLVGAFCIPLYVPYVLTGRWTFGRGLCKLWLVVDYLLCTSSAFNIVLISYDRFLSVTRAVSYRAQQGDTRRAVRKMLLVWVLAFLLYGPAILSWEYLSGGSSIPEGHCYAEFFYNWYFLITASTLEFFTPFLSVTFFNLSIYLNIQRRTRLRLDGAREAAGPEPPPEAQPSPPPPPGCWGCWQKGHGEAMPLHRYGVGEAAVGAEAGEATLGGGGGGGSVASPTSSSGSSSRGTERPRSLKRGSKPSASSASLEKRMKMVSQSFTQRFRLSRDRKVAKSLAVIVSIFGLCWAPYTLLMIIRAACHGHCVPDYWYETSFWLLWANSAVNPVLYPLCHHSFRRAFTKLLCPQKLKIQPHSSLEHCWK
Procedure: as §1

HRH4 dose-response raw reporter signal (Fig. 5b source data) ([1]; Log(10)Conc (M) -5): 427 and 460 | HRH4 dose-response raw reporter signal (Fig. 5b source data) ([1]; Log(10)Conc (M) -6): 342 and 348 | HRH4 dose-response raw reporter signal (Fig. 5b source data) ([1]; Log(10)Conc (M) -7): 348 and 321 | HRH4 dose-response raw reporter signal (Fig. 5b source data) ([1]; Log(10)Conc (M) -8): 410 and 321 | HRH4 dose-response raw reporter signal (Fig. 5b source data) ([1]; Log(10)Conc (M) -9): 324 and 251 | HRH4 dose-response raw reporter signal (Fig. 5b source data) ([1]; Log(10)Conc (M) -10): 377 and 368 | HRH4 dose-response raw reporter signal (Fig. 5b source data) ([1]; Log(10)Conc (M) -11): 262 and 307 | HRH4 dose-response raw reporter signal (Fig. 5b source data) ([1]; Log(10)Conc (M) -12): 407 and 336 | HRH4 dose-response raw reporter signal (Fig. 5b source data) ([1]; Log(10)Conc (M) -13): 298 and 395 | HRH4 dose-response raw reporter signal (Fig. 5b source data) ([1]; Log(10)Conc (M) -14): 268 | HRH4 dose-response raw reporter signal (Fig. 5b source data) ([1]; Log(10)Conc (M) -15): 215 and 212 | activity towards HRH4 ([1]; PRESTO-Tango dose-response): no activity | HRH2 dose-response raw reporter signal (Fig. 5b source data) (HRH2; Log(10)Conc (M) -4): 83 and 65 and 100 | HRH2 dose-response raw reporter signal (Fig. 5b source data) (HRH2; Log(10)Conc (M) -5): 41 and 50 and 56 | HRH2 dose-response raw reporter signal (Fig. 5b source data) (HRH2; Log(10)Conc (M) -6): 56 and 47 and 32 | HRH2 dose-response raw reporter signal (Fig. 5b source data) (HRH2; Log(10)Conc (M) -7): 65 and 62 and 35 | HRH2 dose-response raw reporter signal (Fig. 5b source data) (HRH2; Log(10)Conc (M) -8): 97 and 47 and 41 | HRH2 dose-response raw reporter signal (Fig. 5b source data) (HRH2; Log(10)Conc (M) -9): 41 and 35 and 77 | HRH2 dose-response raw reporter signal (Fig. 5b source data) (HRH2; Log(10)Conc (M) -10): 38 and 80 and 41 | HRH2 dose-response raw reporter signal (Fig. 5b source data) (HRH2; Log(10)Conc (M) -11): 91 and 32 and 56 | HRH2 dose-response raw reporter signal (Fig. 5b source data) (HRH2; Log(10)Conc (M) -12): 53 and 71 and 59 | HRH2 dose-response raw reporter signal (Fig. 5b source data) (HRH2; Log(10)Conc (M) -13): 38 (2×) and 85 | HRH2 dose-response raw reporter signal (Fig. 5b source data) (HRH2; Log(10)Conc (M) -14): 38 and 65 and 56 | HRH2 dose-response raw reporter signal (Fig. 5b source data) (HRH2; Log(10)Conc (M) -15): 32 and 41 and 83 | activity towards HRH2 (HRH2; PRESTO-Tango dose-response): no activity | HRH1 dose-response raw reporter signal (Fig. 5b source data) (HRH1; Log(10)Conc (M) -4): 50545 and 47748 | HRH1 dose-response raw reporter signal (Fig. 5b source data) (HRH1; Log(10)Conc (M) -5): 50057 and 47492 | HRH1 dose-response raw reporter signal (Fig. 5b source data) (HRH1; Log(10)Conc (M) -6): 50434 and 47377 | HRH1 dose-response raw reporter signal (Fig. 5b source data) (HRH1; Log(10)Conc (M) -7): 50075 and 47693 | HRH1 dose-response raw reporter signal (Fig. 5b source data) (HRH1; Log(10)Conc (M) -8): 49488 and 47793 | HRH1 dose-response raw reporter signal (Fig. 5b source data) (HRH1; Log(10)Conc (M) -9): 48159 and 46626 | HRH1 dose-response raw reporter signal (Fig. 5b source data) (HRH1; Log(10)Conc (M) -10): 48713 and 47646 | HRH1 dose-response raw reporter signal (Fig. 5b source data) (HRH1; Log(10)Conc (M) -11): 49358 and 47065 | HRH1 dose-response raw reporter signal (Fig. 5b source data) (HRH1; Log(10)Conc (M) -12): 50278 and 46581 | HRH1 dose-response raw reporter signal (Fig. 5b source data) (HRH1; Log(10)Conc (M) -13): 49874 and 48613 | HRH1 dose-response raw reporter signal (Fig. 5b source data) (HRH1; Log(10)Conc (M) -14): 50243 and 49745 | HRH1 dose-response raw reporter signal (Fig. 5b source data) (HRH1; Log(10)Conc (M) -15): 45927 and 43079 | activity towards HRH1 (HRH1; PRESTO-Tango dose-response): no activity | HRH3 dose-response raw reporter signal (Fig. 5b source data) (HRH3; Log(10)Conc (M) -4): 348 and 274 and 324 | HRH3 dose-response raw reporter signal (Fig. 5b source data) (HRH3; Log(10)Conc (M) -5): 112 and 156 and 153 | HRH3 dose-response raw reporter signal (Fig. 5b source data) (HRH3; Log(10)Conc (M) -6): 127 and 174 and 142 | HRH3 dose-response raw reporter signal (Fig. 5b source data) (HRH3; Log(10)Conc (M) -7): 91 and 130 and 165 | HRH3 dose-response raw reporter signal (Fig. 5b source data) (HRH3; Log(10)Conc (M) -8): 168 and 112 and 162 | HRH3 dose-response raw reporter signal (Fig. 5b source data) (HRH3; Log(10)Conc (M) -9): 127 and 103 and 139 | HRH3 dose-response raw reporter signal (Fig. 5b source data) (HRH3; Log(10)Conc (M) -10): 174 and 144 and 115 | HRH3 dose-response raw reporter signal (Fig. 5b source data) (HRH3; Log(10)Conc (M) -11): 162 (2×) and 97 | HRH3 dose-response raw reporter signal (Fig. 5b source data) (HRH3; Log(10)Conc (M) -12): 139 and 168 and 144 | HRH3 dose-response raw reporter signal (Fig. 5b source data) (HRH3; Log(10)Conc (M) -13): 183 and 168 and 153 | HRH3 dose-response raw reporter signal (Fig. 5b source data) (HRH3; Log(10)Conc (M) -14): 183 and 85 and 150 | HRH3 dose-response raw reporter signal (Fig. 5b source data) (HRH3; Log(10)Conc (M) -15): 94 and 115 and 112 | activity towards HRH3 (HRH3; PRESTO-Tango dose-response): no activity
Structure (SMILES): COC(=O)CCc1nc(Cc2ccccc2)c(CCC(=O)O)nc1Cc1ccccc1 [9-Me]
